From ChEMBL document CHEMBL1909046, “DrugMatrix in vitro pharmacology data”

Assays:
[1] = biological target: T1, Alpha-2C adrenergic receptor (Homo sapiens, UniProt P18825); assay: DRUGMATRIX: Adrenergic Alpha-2C radioligand binding (ligand: [3H] MK-912); format: cell membranes, Sf9, Membrane; settings: sf9
T1 sequence (P18825 whole entry): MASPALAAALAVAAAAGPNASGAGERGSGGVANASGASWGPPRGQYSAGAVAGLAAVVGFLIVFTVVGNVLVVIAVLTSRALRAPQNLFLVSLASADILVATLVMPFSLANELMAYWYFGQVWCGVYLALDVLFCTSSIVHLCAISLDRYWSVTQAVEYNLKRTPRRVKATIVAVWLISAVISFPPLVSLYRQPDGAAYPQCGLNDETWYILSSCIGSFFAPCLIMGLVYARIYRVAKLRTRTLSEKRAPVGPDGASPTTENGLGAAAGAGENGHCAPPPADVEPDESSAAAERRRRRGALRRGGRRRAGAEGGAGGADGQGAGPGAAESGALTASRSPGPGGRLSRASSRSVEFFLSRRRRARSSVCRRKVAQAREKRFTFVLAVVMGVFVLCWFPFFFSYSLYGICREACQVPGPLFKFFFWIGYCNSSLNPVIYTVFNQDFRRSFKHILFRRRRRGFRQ

[2] = biological target: T2, Vasoactive intestinal polypeptide receptor 1 (Homo sapiens, UniProt P32241); format: cell membranes, Membrane; settings: ht-29; also: in other assays of this panel Not Active means under 50% inhibition at 10 µM
T2 sequence (P32241 whole entry): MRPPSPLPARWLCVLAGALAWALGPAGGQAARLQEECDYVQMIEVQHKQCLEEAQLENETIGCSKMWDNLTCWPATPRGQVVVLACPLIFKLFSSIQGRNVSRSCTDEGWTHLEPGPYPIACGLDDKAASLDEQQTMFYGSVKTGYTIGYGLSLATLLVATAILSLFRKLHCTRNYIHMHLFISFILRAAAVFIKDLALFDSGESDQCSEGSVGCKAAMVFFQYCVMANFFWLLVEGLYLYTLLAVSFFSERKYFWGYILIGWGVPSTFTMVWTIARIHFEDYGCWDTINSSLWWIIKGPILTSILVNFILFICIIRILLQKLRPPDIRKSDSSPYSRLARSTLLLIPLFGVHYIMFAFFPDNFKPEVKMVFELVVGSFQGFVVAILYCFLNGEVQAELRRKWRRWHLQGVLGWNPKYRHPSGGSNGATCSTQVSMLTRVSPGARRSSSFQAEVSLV

[3] = DRUGMATRIX: GABAA, Muscimol, Central radioligand binding (ligand: [3H] Muscimol); format: cell membranes, Rattus norvegicus, Wistar, Brain, Membrane; settings: Not Active = under 50% inhibition at 10 µM
Insulin receptor = Insulin receptor (Rattus norvegicus, UniProt P15127); format: cell membranes, Wistar, Liver, Membrane; also: in other assays of this panel Not Active means under 50% inhibition at 10 µM
[4] = biological target: T3, Neuropeptide Y receptor type 2 (Homo sapiens, UniProt P49146); format: cell membranes, Membrane; settings: kan-ts; also: in other assays of this panel Not Active means under 50% inhibition at 10 µM
T3 sequence (P49146 whole entry): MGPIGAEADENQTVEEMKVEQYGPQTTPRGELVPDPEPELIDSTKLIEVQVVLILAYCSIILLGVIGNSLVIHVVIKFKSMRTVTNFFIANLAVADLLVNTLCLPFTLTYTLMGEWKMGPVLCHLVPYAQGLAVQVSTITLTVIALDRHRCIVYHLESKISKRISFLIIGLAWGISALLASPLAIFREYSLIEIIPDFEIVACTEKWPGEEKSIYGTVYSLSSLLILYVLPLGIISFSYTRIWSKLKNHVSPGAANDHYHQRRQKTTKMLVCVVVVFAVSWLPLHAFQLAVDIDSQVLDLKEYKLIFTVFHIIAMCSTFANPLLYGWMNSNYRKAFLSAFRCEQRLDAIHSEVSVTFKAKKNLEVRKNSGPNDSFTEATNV

[5] = biological target: Delta-type opioid receptor (Homo sapiens, UniProt P41143); format: cell membranes, HEK293, Membrane; settings: hek293; also: in other assays of this panel Not Active means under 50% inhibition at 10 µM
[6] = DRUGMATRIX: Potassium Channel [KATP] radioligand binding (ligand: [3H] Glyburide); format: cell membranes, Membrane; settings: hit-t15; Not Active = under 50% inhibition at 10 µM
Caspase-1 = biological target: T4, Caspase-1 (Homo sapiens, UniProt P29466); set-up: species or system Escherichia coli
T4 sequence (P29466 whole entry): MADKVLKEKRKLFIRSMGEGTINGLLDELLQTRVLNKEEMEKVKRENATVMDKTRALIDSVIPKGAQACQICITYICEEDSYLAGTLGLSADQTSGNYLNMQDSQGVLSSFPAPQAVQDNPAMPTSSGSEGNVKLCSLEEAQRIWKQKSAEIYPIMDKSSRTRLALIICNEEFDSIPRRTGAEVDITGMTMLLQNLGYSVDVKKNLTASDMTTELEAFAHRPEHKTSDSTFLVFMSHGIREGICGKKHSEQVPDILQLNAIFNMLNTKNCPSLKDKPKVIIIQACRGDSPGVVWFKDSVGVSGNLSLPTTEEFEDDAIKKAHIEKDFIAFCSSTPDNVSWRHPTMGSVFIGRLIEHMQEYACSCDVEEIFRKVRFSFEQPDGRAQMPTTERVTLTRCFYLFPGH

Chain of Delta-type opioid receptor (P41143 whole entry): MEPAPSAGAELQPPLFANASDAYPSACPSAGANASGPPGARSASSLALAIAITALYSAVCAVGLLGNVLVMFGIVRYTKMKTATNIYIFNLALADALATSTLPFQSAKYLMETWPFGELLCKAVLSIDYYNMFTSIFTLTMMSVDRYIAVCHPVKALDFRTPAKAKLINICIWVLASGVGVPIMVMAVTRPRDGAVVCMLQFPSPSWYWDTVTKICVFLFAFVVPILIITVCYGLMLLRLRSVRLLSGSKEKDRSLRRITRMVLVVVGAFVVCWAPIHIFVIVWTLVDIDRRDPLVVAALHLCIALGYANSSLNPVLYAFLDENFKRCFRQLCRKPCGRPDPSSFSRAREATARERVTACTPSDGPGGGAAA
Chain of Insulin receptor (P15127 27-759 limits assumed): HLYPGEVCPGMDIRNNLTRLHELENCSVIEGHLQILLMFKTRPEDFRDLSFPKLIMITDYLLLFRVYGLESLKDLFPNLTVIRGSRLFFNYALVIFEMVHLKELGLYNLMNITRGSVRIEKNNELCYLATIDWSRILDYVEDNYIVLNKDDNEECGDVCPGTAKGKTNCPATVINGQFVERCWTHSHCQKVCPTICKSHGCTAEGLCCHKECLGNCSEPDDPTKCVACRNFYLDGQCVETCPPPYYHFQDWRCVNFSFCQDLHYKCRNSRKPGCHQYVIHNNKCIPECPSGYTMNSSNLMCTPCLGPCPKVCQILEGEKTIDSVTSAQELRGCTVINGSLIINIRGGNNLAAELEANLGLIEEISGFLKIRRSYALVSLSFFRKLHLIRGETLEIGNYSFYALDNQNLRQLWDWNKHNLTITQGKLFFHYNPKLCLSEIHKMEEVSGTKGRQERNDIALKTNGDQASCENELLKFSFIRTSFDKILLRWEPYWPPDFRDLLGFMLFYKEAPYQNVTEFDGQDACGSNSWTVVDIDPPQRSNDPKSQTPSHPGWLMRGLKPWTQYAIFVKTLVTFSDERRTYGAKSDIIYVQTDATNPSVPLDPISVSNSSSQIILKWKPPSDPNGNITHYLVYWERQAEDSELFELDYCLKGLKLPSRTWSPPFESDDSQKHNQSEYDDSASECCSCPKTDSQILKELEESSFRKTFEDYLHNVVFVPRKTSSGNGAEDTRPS
Chain of Insulin receptor (P15127 764-1383 limits assumed): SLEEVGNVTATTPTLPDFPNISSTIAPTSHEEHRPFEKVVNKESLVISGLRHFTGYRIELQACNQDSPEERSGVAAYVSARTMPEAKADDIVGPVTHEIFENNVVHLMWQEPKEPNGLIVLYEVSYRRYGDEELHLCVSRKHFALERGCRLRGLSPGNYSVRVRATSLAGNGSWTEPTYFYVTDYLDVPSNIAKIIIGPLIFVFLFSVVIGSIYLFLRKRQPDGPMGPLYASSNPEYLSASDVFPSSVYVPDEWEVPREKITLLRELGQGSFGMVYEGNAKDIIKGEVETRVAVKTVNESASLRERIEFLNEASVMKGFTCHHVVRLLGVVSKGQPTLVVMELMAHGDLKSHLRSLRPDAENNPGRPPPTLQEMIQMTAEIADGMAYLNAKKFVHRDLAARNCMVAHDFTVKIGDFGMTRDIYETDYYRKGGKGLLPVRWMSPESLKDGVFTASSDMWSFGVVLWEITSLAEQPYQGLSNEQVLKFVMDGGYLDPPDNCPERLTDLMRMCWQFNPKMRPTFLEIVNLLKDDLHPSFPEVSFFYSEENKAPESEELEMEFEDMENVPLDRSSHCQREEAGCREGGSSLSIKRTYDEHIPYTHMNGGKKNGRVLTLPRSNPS

C[C@H]1O[C@@H](O[C@H]2[C@@H](O)C[C@H](O[C@H]3[C@@H](O)C[C@H](O[C@H]4CC[C@@]5(C)[C@H](CC[C@@H]6[C@@H]5C[C@@H](O)[C@]5(C)[C@@H](C7=CC(=O)OC7)CC[C@]65O)C4)O[C@@H]3C)O[C@@H]2C)C[C@H](O)[C@@H]1O [DIGOXIN]
Not Active: IC50 [1] | IC50 [2] | IC50 [3] | Ki [3] | IC50 (Insulin receptor) | IC50 [4] | IC50 [5] | IC50 [6] | Ki [6] | IC50 (Caspase-1)

CCCCc1nc(Cl)c(CO)n1Cc1ccc(-c2ccccc2-c2nnn[nH]2)cc1 [LOSARTAN]
Not Active: IC50 [1] | IC50 [2] | IC50 [3] | Ki [3] | IC50 (Insulin receptor) | IC50 [4] | IC50 [5] | IC50 [6] | Ki [6] | IC50 (Caspase-1)

Nc1c(Br)cc(Br)cc1CN[C@H]1CC[C@H](O)CC1 [AMBROXOL]
Not Active: IC50 [1] | IC50 [2] | IC50 [3] | Ki [3] | IC50 (Insulin receptor) | IC50 [4] | IC50 [5] | IC50 [6] | Ki [6] | IC50 (Caspase-1)

CNCCc1ccccn1 [BETAHISTINE]
Not Active: IC50 [1] | IC50 [2] | IC50 [3] | Ki [3] | IC50 (Insulin receptor) | IC50 [4] | IC50 [5] | IC50 [6] | Ki [6] | IC50 (Caspase-1)

O=C(O)CCCc1ccc(N(CCCl)CCCl)cc1 [CHLORAMBUCIL]
Not Active: IC50 [1] | IC50 [2] | IC50 [3] | Ki [3] | IC50 (Insulin receptor) | IC50 [4] | IC50 [5] | IC50 [6] | Ki [6] | IC50 (Caspase-1)

NC(=O)N1c2ccccc2CCc2ccccc21
Not Active: IC50 [1] | IC50 [2] | IC50 [3] | Ki [3] | IC50 (Insulin receptor) | IC50 [4] | IC50 [5] | IC50 [6] | Ki [6] | IC50 (Caspase-1)

NCCCCCC(=O)O [AMINOCAPROIC ACID]
Not Active: IC50 [1] | IC50 [2] | IC50 [3] | Ki [3] | IC50 (Insulin receptor) | IC50 [4] | IC50 [5] | IC50 [6] | Ki [6] | IC50 (Caspase-1)

C=C(C)C1(O)OC(=O)C=C1OC (stereo not given) [PENICILLIC ACID]
Not Active: IC50 [1] | IC50 [2] | IC50 [3] | Ki [3] | IC50 (Insulin receptor) | IC50 [4] | IC50 [5] | IC50 [6] | Ki [6] | IC50 (Caspase-1)

CC1(C)O[C@@H]2C[C@H]3[C@@H]4CCC5=CC(=O)CC[C@]5(C)[C@@]4(F)[C@@H](O)C[C@]3(C)[C@]2(C(=O)CCl)O1 [HALCINONIDE]
Not Active: IC50 [1] | IC50 [2] | IC50 [3] | Ki [3] | IC50 (Insulin receptor) | IC50 [4] | IC50 [5] | IC50 [6] | Ki [6] | IC50 (Caspase-1)
